In patent US10980889B1 (Revolution Medicines, Inc., priority 2018, dated 2021):

Assays:
[1] = system: P-P70S6K (T389); experiment: Cell based AlphaLISA assay, inhibition of P-P70S6K (T389) in MDA-MB-468 cells (mTORC1 substrate); conditions: AlphaLisa, two to four hours at 37° C.; for IC50: Homo sapiens, 4 h, read-out: pIC50 for Inhibition of mTORC1 and mTORC2 Substrate Phosphorylation p-P70S6K-(T389) (converted)
Procedure, shortened: (§1)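 In MDA-MB-468 cells, phosphorylation of 4EBP1 (Thr37/46), P70S6K (Thr389) and AKT (Ser473) was measured after incubation with inhibitor by AlphaLISA SureFire Ultra on cell lysates, in duplicate. IC50 values came from control-normalized concentration-response regression.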

[2] = system: P-4E-BP1 (T37/46); experiment: Cell based AlphaLISA assay, inhibition of P-4E-BP1 (T37/46) in MDA-MB-468 cells (mTORC1 substrate); conditions: AlphaLisa, two to four hours at 37° C.; for IC50: Homo sapiens, 4 h, read-out: pIC50 for Inhibition of mTORC1 and mTORC2 Substrate Phosphorylation P-4E-BP1-(T37/46) (converted)
Procedure, shortened: as §1

[3] = system: P-Akt (S473); experiment: Cell based AlphaLISA assay, inhibition of P-Akt (S473) in MDA-MB-468 cells (mTORC2 substrate); conditions: AlphaLisa, two to four hours at 37° C.; for IC50: Homo sapiens, 4 h, read-out: pIC50 for Inhibition of mTORC1 and mTORC2 Substrate Phosphorylation p-AKT1/2/3-(S473) (converted)
Procedure, shortened: as §1

Structure (SMILES)	pIC50 for Inhibition of mTORC1 and mTORC2 Substrate Phosphorylation p-P70S6K-(T389) [1]	pIC50 for Inhibition of mTORC1 and mTORC2 Substrate Phosphorylation P-4E-BP1-(T37/46) [2]	pIC50 for Inhibition of mTORC1 and mTORC2 Substrate Phosphorylation p-AKT1/2/3-(S473) [3]	IC50 [1] [nM]	IC50 [2] [nM]	IC50 [3] [nM]
CO[C@H]1C[C@@H]2CC[C@@H](C)[C@@](O)(O2)C(=O)C(=O)N2CCCC[C@H]2C(=O)O[C@H]([C@H](C)C[C@@H]2CC[C@@H](OC(=O)NCc3cnc(N4CCN(c5ncc(C(=O)NCCOCCOCCOCCOCCC(=O)N6CCc7cc(Cn8nc(-c9ccc%10oc(N)nc%10c9)c9c(N)ncnc98)ccc7C6)cn5)[C@@H](C(=O)O)C4)nc3)[C@H](OC)C2)CC(=O)[C@H](C)/C=C(\C)[C@@H](O)[C@@H](OC)C(=O)[C@H](C)C[C@H](C)/C=C/C=C/C=C/1C [Example 105]	+++ (≥9)	++ (8.5 > pIC50 ≥ 7.5)	− (<6)			
CO[C@H]1C[C@@H]2CC[C@@H](C)[C@@](O)(O2)C(=O)C(=O)N2CCCC[C@H]2C(=O)O[C@H]([C@H](C)C[C@@H]2CC[C@@H](OC(=O)NCc3cnc(N4CCN(c5ncc(C(=O)N(C)CCOCCOCCOCCOCCC(=O)N6CCc7cc(Cn8nc(-c9ccc%10oc(N)nc%10c9)c9c(N)ncnc98)ccc7C6)c(N)n5)CC4)nc3)[C@H](OC)C2)C[C@@H](OC)[C@H](C)/C=C(\C)[C@@H](O)[C@@H](OC)C(=O)[C@H](C)C[C@H](C)/C=C/C=C/C=C/1C [Example 107]	+++ (≥9)	− (<6)	− (<6)			
CO[C@H]1C[C@@H]2CC[C@@H](C)[C@@](O)(O2)C(=O)C(=O)N2CCCC[C@H]2C(=O)O[C@H]([C@H](C)C[C@@H]2CC[C@@H](OC(=O)NCc3cnc(N4CCN(c5ncc(C(=O)NCCOCCOCCOCCOCCC(=O)N6CCc7cc(Cn8nc(-c9cnc%10[nH]ccc%10c9)c9c(N)ncnc98)ccc7C6)c(N)n5)CC4)nc3)[C@H](OC)C2)CC(=O)[C@H](C)/C=C(\C)[C@@H](O)[C@@H](OC)C(=O)[C@H](C)C[C@H](C)/C=C/C=C/C=C/1C [Example 108]	++ (9 > pIC50 ≥ 8)	− (<6)	− (<6)			
CO[C@H]1C[C@@H]2CC[C@@H](C)[C@@](O)(O2)C(=O)C(=O)N2CCCC[C@H]2C(=O)O[C@H]([C@H](C)C[C@@H]2CC[C@@H](OC(=O)NCc3cnc(N4CCN(C(=O)CCOCCN5CCN(c6ncc(C(=O)N7CCc8cc(Cn9nc(-c%10ccc%11oc(N)nc%11c%10)c%10c(N)ncnc%109)ccc8C7)cn6)CC5)CC4)nc3)[C@H](OC)C2)CC(=O)[C@H](C)/C=C(\C)[C@@H](O)[C@@H](OC)C(=O)[C@H](C)C[C@H](C)/C=C/C=C/C=C/1C [Example 109]				10 to 1000	> 1000	> 1000
CO[C@H]1C[C@@H]2CC[C@@H](C)[C@@](O)(O2)C(=O)C(=O)N2CCCC[C@H]2C(=O)O[C@H]([C@H](C)C[C@@H]2CC[C@@H](OC(=O)NCc3cnc(N4CCN(C(=O)CCOCCN5CCN(c6ncc(C(=O)N7CCc8cc(Cn9nc(-c%10cnc%11[nH]ccc%11c%10)c%10c(N)ncnc%109)ccc8C7)cn6)CC5)CC4)nc3)[C@H](OC)C2)CC(=O)[C@H](C)/C=C(\C)[C@@H](O)[C@@H](OC)C(=O)[C@H](C)C[C@H](C)/C=C/C=C/C=C/1C [Example 110]				1 to 10	> 1000	> 1000
CO[C@H]1C[C@@H]2CC[C@@H](C)[C@@](O)(O2)C(=O)C(=O)N2CCCC[C@H]2C(=O)O[C@H]([C@H](C)C[C@@H]2CC[C@@H](OC(=O)NCc3cnc(N4CCN(c5ncc(C(=O)NCCOCCC(=O)N6CCN(c7ncc(C(=O)NCCCCn8nc(-c9ccc%10oc(N)nc%10c9)c9c(N)ncnc98)cn7)CC6)cn5)CC4)nc3)[C@H](OC)C2)CC(=O)[C@H](C)/C=C(\C)[C@@H](O)[C@@H](OC)C(=O)[C@H](C)C[C@H](C)/C=C/C=C/C=C/1C [Example 111]				< 1	< 3.16	> 1000
CO[C@H]1C[C@@H]2CC[C@@H](C)[C@@](O)(O2)C(=O)C(=O)N2CCCC[C@H]2C(=O)O[C@H]([C@H](C)C[C@@H]2CC[C@@H](OC(=O)NCc3cnc(N4CCN(C(=O)CCOCCN5CCN(c6ncc(C(=O)NCCCCn7nc(-c8ccc9oc(N)nc9c8)c8c(N)ncnc87)cn6)CC5)CC4)nc3)[C@H](OC)C2)CC(=O)[C@H](C)/C=C(\C)[C@@H](O)[C@@H](OC)C(=O)[C@H](C)C[C@H](C)/C=C/C=C/C=C/1C [Example 112]				< 1	> 1000	> 1000
CO[C@H]1C[C@@H]2CC[C@@H](C)[C@@](O)(O2)C(=O)C(=O)N2CCCC[C@H]2C(=O)O[C@H]([C@H](C)C[C@@H]2CC[C@@H](OC(=O)NCc3cnc(N4CCN(C(=O)CCOCCN5CCN(c6ncc(C(=O)N7CCc8cc(Cn9nc(-c%10ccc%11oc(N)nc%11c%10)c%10c(N)ncnc%109)ccc8C7)cn6)CC5)CC4)nc3)[C@H](OC)C2)C[C@@H](O)[C@H](C)/C=C(\C)[C@@H](O)[C@@H](OC)C(=O)[C@H](C)C[C@H](C)/C=C/C=C/C=C/1C [Example 113]				< 1	< 3.16	3.16 to 31.6
CO[C@H]1C[C@@H]2CC[C@@H](C)[C@@](O)(O2)C(=O)C(=O)N2CCCC[C@H]2C(=O)O[C@H]([C@H](C)C[C@@H]2CC[C@@H](OC(=O)NCc3cnc(N4CCN(C(=O)CCOCCN5CCN(c6ncc(C(=O)N7CCc8cc(Cn9nc(-c%10ccc%11oc(N)nc%11c%10)c%10c(N)ncnc%109)ccc8C7)cn6)CC5)CC4)nc3)[C@H](OC)C2)C[C@@H](OC)[C@H](C)/C=C(\C)[C@@H](O)[C@@H](OC)C(=O)[C@H](C)C[C@H](C)/C=C/C=C/C=C/1C [Example 114]				< 1	< 3.16	> 1000
CO[C@H]1C[C@@H]2CC[C@@H](C)[C@@](O)(O2)C(=O)C(=O)N2CCCC[C@H]2C(=O)O[C@H]([C@H](C)C[C@@H]2CC[C@@H](OC(=O)NCc3cnc(N4CCN(C(=O)CCOCCN5CCN(C(=O)CCC(=O)NCCCCn6nc(-c7cnc8[nH]ccc8c7)c7c(N)ncnc76)CC5)CC4)nc3)[C@H](OC)C2)CC(=O)[C@H](C)/C=C(\C)[C@@H](O)[C@@H](OC)C(=O)[C@H](C)C[C@H](C)/C=C/C=C/C=C/1C [Example 116]				< 1	< 3.16	> 1000
CO[C@H]1C[C@@H]2CC[C@@H](C)[C@@](O)(O2)C(=O)C(=O)N2CCCC[C@H]2C(=O)O[C@H]([C@H](C)C[C@@H]2CC[C@@H](OC(=O)N3CCc4nc(N5CCN(C(=O)CCOCCN6CCN(c7ncc(C(=O)N8CCc9cc(Cn%10nc(-c%11ccc%12oc(N)nc%12c%11)c%11c(N)ncnc%11%10)ccc9C8)cn7)CC6)CC5)ncc4C3)[C@H](OC)C2)C[C@@H](OC)[C@H](C)/C=C(\C)[C@@H](O)[C@@H](OC)C(=O)[C@H](C)C[C@H](C)/C=C/C=C/C=C/1C [Example 117]				< 1	< 3.16	3.16 to 31.6
CO[C@H]1C[C@@H]2CC[C@@H](C)[C@@](O)(O2)C(=O)C(=O)N2CCCC[C@H]2C(=O)O[C@H]([C@H](C)C[C@@H]2CC[C@@H](OC(=O)NCc3cnc(N4CCN(C(=O)CCOCCN5CCN(c6ncc(C(=O)N7CCc8cc(Cn9nc(-c%10ccc%11oc(N)nc%11c%10)c%10c(N)ncnc%109)ccc8C7)cn6)CC5)CC4)nc3)[C@H](OC)C2)CC[C@H](C)/C=C(\C)[C@@H](O)[C@@H](OC)C(=O)[C@H](C)C[C@H](C)/C=C/C=C/C=C/1C [Example 118]				< 1	< 3.16	3.16 to 31.6
CO[C@H]1C[C@@H]2CC[C@@H](C)[C@@](O)(O2)C(=O)C(=O)N2CCCC[C@H]2C(=O)O[C@H]([C@H](C)C[C@@H]2CC[C@@H](OC(=S)NCc3cnc(N4CCN(C(=O)CCOCCN5CCN(c6ncc(C(=O)N7CCc8cc(Cn9nc(-c%10ccc%11oc(N)nc%11c%10)c%10c(N)ncnc%109)ccc8C7)cn6)CC5)CC4)nc3)[C@H](OC)C2)CC(=O)[C@H](C)/C=C(\C)[C@@H](O)[C@@H](OC)C(=O)[C@H](C)C[C@H](C)/C=C/C=C/C=C/1C [Example 119]				< 1	< 3.16	3.16 to 31.6
CO[C@H]1C[C@@H]2CC[C@@H](C)[C@@](O)(O2)C(=O)C(=O)N2CCCC[C@H]2C(=O)O[C@H]([C@H](C)C[C@@H]2CC[C@@H](OC(=S)NCc3cnc(N4CCN(C(=O)CCOCCN5CCN(c6ncc(C(=O)N7CCc8cc(Cn9nc(-c%10ccc%11oc(N)nc%11c%10)c%10c(N)ncnc%109)ccc8C7)cn6)CC5)CC4)nc3)[C@H](OC)C2)C[C@@H](OC)[C@H](C)/C=C(\C)[C@@H](O)[C@@H](OC)C(=O)[C@H](C)C[C@H](C)/C=C/C=C/C=C/1C [Example 121]				< 1	< 3.16	> 1000
CO[C@H]1C[C@@H]2CC[C@@H](C)[C@@](O)(O2)C(=O)C(=O)N2CCCC[C@H]2C(=O)O[C@H]([C@H](C)C[C@@H]2CC[C@@H](OC(=O)NCc3cnc(N4CCN(C(=O)CCOCCN5CCN(c6ncc(C(=O)NCCS(=O)(=O)c7ccc(C(=O)N8CCOc9ccc(-c%10ccc(N)nc%10)cc9C8)c(C)c7F)cn6)CC5)CC4)nc3)[C@H](OC)C2)C[C@@H](O)[C@H](C)/C=C(\C)[C@@H](O)[C@@H](OC)C(=O)[C@H](C)C[C@H](C)/C=C/C=C/C=C/1C [Example 122]				< 1	< 3.16	3.16 to 31.6
